Reference: ChEMBL document CHEMBL1201862, “PubChem BioAssay data set” (2004)
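Five compound concentrations were applied to cells in 96-well plates for 48 hours; endpoints were derived by simple linear interpolation of the resulting dose-response curve. Abbreviation: GI50, concentration required for 50% inhibition of growth.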 Calls of active or inactive are those of the source. Cut-off read from the data, not from the text of the source: active = GI50 up to about 1.1 µM and inactive = higher.

Legend:
Assay in all cases: growth of human tumour cells (NCI), 48 h
A498 = test system: A498
CCRF-CEM = test system: CCRF-CEM
COLO 205 = test system: COLO 205
EKVX = test system: EKVX
HCC 2998 = test system: HCC 2998
HCT-15 = test system: HCT-15
HOP-92 = test system: HOP-92
Hs-578T = test system: Hs-578T
IGROV-1 = test system: IGROV-1
M14 = test system: M14
MDA-N = test system: MDA-N
PC-3 = test system: PC-3
SK-MEL-2 = test system: SK-MEL-2
SNB-19 = test system: SNB-19
UO-31 = test system: UO-31
NCI-H226 = test system: NCI-H226
RXF 393 = test system: RXF 393

Row | SMILES | GI50 (A498) | GI50 (CCRF-CEM) | GI50 (COLO 205) | GI50 (EKVX) | GI50 (HCC 2998) | GI50 (HCT-15) | GI50 (HOP-92) | GI50 (Hs-578T) | GI50 (IGROV-1) | GI50 (M14) | GI50 (MDA-N) | GI50 (PC-3) | GI50 (SK-MEL-2) | GI50 (SNB-19) | GI50 (UO-31) | GI50 (NCI-H226) | GI50 (RXF 393)
1 | CC1CN=C(N(C(=O)Nc2ccc(Cl)c(Cl)c2)c2ccccc2)S1 (stereo not given) | > 100 µM (inactive) | 31.9 µM (inactive) | 37.2 µM (inactive) | 71.1 µM (inactive) | 33.6 µM (inactive) | 27 µM | 38.9 µM (inactive) | > 100 µM (inactive) | > 100 µM (inactive) | 35.3 µM (inactive) | 36 µM (inactive) | 37.8 µM (inactive) | 23 µM (inactive) | > 100 µM (inactive) | > 100 µM (inactive) | – | –
2 | Cn1c(=O)c2c(nc(N/N=C3/SCC(=O)N3Cc3ccccc3)n2C)n(C)c1=O | > 100 µM (inactive) | 47.9 µM (inactive) | 50.4 µM (inactive) | 94.2 µM (inactive) | > 100 µM (inactive) | 85.5 µM | 5.9 µM (inactive) | 60.8 µM (inactive) | 34.3 µM (inactive) | > 100 µM (inactive) | > 100 µM (inactive) | 39.2 µM (inactive) | 58.7 µM (inactive) | > 100 µM (inactive) | > 100 µM (inactive) | > 100 µM (inactive) | > 100 µM (inactive)
3 | CCSc1ncnc2c(C3OC(CO)C(O)C3O)nsc12 (stereo not given) | > 100 µM (inactive) | > 100 µM (inactive) | > 100 µM (inactive) | > 100 µM (inactive) | 99.1 µM (inactive) | > 100 µM | > 100 µM (inactive) | > 100 µM (inactive) | > 100 µM (inactive) | > 100 µM (inactive) | > 100 µM (inactive) | > 100 µM (inactive) | > 100 µM (inactive) | – | – | > 100 µM (inactive) | > 100 µM (inactive)
4 | Cc1c(Cl)nc(Cl)nc1Cl | 3.8 µM (inactive) | 0.238 µM (active) | 0.307 µM (active) | 1.9 µM (inactive) | 1.2 µM (inactive) | 0.287 µM | 2.12 µM (inactive) | 3.12 µM (inactive) | 3.01 µM (inactive) | 0.857 µM (active) | 2.18 µM (inactive) | 2 µM (inactive) | – | 3.81 µM (inactive) | 0.409 µM (active) | 3.21 µM (inactive) | 1.87 µM (inactive)
5 | CC(=O)O[C@H]1[C@H](OC(=O)CC(C)(O)CC(=O)O)C[C@]2(C)C3=C(CCC2C1(C)C)[C@]1(C)CC[C@H]([C@H]2CC[C@H](C(C)(C)O)OC2O)[C@@]1(C)[C@@H](O)C3 (stereo not given in full) | 12.9 µM (inactive) | 22 µM (inactive) | – | 17.4 µM (inactive) | 15.8 µM (inactive) | 17.2 µM | 16.9 µM (inactive) | 16 µM (inactive) | 17.1 µM (inactive) | 17.8 µM (inactive) | 18.1 µM (inactive) | 18.3 µM (inactive) | 18.8 µM (inactive) | 18.8 µM (inactive) | 13.1 µM (inactive) | 23.8 µM (inactive) | –
6 | C=CC(Br)(CBr)CCC(Cl)C(C)C (stereo not given) | 13.7 µM (inactive) | 0.364 µM (active) | 3.38 µM (inactive) | 9.66 µM (inactive) | < 0.01 µM (active) | – | 2.04 µM (inactive) | 2.58 µM (inactive) | 2.5 µM (inactive) | 1.7 µM (inactive) | 1.45 µM (inactive) | 3.45 µM (inactive) | 1.92 µM (inactive) | 2.2 µM (inactive) | 1.64 µM (inactive) | 7.28 µM (inactive) | 1.6 µM (inactive)
7 | CN1COCc2c1ccc1cc3ccc4c(c3nc21)COCN4S(C)(=O)=O | > 100 µM (inactive) | > 100 µM (inactive) | > 100 µM (inactive) | 78 µM (inactive) | > 100 µM (inactive) | > 100 µM | > 100 µM (inactive) | 95.9 µM (inactive) | > 100 µM (inactive) | > 100 µM (inactive) | > 100 µM (inactive) | > 100 µM (inactive) | – | > 100 µM (inactive) | > 100 µM (inactive) | > 100 µM (inactive) | > 100 µM (inactive)
8 | COc1cc(/C=C2\CCC(C)C3=C2N=c2s/c(=C/c4ccc(Cl)cc4)c(=O)n2C3c2cc(OC)c(OC)c(OC)c2)cc(OC)c1OC (stereo not given) | > 100 µM (inactive) | > 100 µM (inactive) | – | > 100 µM (inactive) | – | > 100 µM | > 100 µM (inactive) | > 100 µM (inactive) | 20.5 µM (inactive) | > 100 µM (inactive) | > 100 µM (inactive) | > 100 µM (inactive) | > 100 µM (inactive) | > 100 µM (inactive) | > 100 µM (inactive) | – | > 100 µM (inactive)
9 | O=c1cccc2n1C[C@H]1CNC[C@H]2C1 | > 100 µM (inactive) | > 100 µM (inactive) | > 100 µM (inactive) | > 100 µM (inactive) | > 100 µM (inactive) | > 100 µM | > 100 µM (inactive) | > 100 µM (inactive) | – | > 100 µM (inactive) | > 100 µM (inactive) | > 100 µM (inactive) | > 100 µM (inactive) | > 100 µM (inactive) | > 100 µM (inactive) | > 100 µM (inactive) | 47 µM (inactive)
